From patent US20190015423A1, “REGULATION OF GENE EXPRESSION BY MODULATING PRIMARY CILIA LENGTH” (THE TRUSTEES OF COLUMBIA UNIVERSITY IN THE CITY OF NEW YORK, priority 2016, published 2019)
“Also recorded” adds a separate entry of the source. Counter-ions that a name gives are not always drawn.

Tests used:
[1] = system: MLO-Y4 osteocytes; experiment: Oscillatory fluid flow-induced mRNA expression (COX-2, OPN, AC6), flow vs no flow; format: cell-based; settings: for COX-2 mRNA response to flow (in words) / OPN mRNA response to flow (in words): fenoldopam 16 hours, flow 1 hour, relative to GAPDH
[2] = system: C3H10T1/2 MSCs; experiment: Flow-induced paracrine signaling: conditioned media of treated osteocytes on MSCs (OSX mRNA); format: cell-based; settings: osteocytes treated with fenoldopam 10 μM 16 hours; MSCs cultured 48 hours in conditioned media
Method: Osteocytes were seeded at 2800 cells/cm2 for 72 hours before application of fluid flow. MC3T3 osteoblasts were cultured in MEMα supplemented with 10% FBS and 1% P/S. Osteoblasts were seeded at 2000 cells/cm2 72 hours before receiving conditioned media. C3H10T1/2 MSCs were cultured in DMEM low glucose (Life Technologies) supplemented with 10% FBS and 1% P/S, and seeded at 1100 cells/cm2 72 hours before culture with conditioned media 150. […] Osteocytes were cultured on rectangular flasks (8.2×9.2 cm; 12.5 ml of media) on a rocking platform which oscillated at a frequency of 0.33 Hz with an amplitude of 1.3 cm, supplying 0.08 Pa shear stress for 2, 6, 12, or 24 hours, FIG. 4.2. Shear stress generated by oscillatory fluid flow was calculated as previously performed 153. 12 hours of fluid flow was used in all experiments. Cells were also cultured in static conditions as a no flow control. Conditioned media was collected from osteocytes immediately upon completion of rocking, and used to culture osteoblasts or MSCs for 24 or 48 hours, respectively. […] Gene expression was analyzed by quantitative real-time PCR using primers and probes (Life Technologies) for analysis of osteopontin, OPN (Mm00436767_m1), osterix, OSX (Mm04209856_m1), and GAPDH (4351309). […]

[3] = system: Adenylyl cyclase; experiment: Adenylyl cyclase activity: forskolin stimulated cAMP ELISA; format: cell-based
Method: Adenylyl cyclase activity was quantified by cAMP ELISA (Enzo). […] Cells were stimulated by 10 μM forskolin (Sigma) or DMSO vehicle control for 20 minutes prior to lysis with 0.1 M HCl. Cell lysate was analyzed according to manufacturer's protocol, and normalized to total protein quantified by BCA (Thermo Fisher). All samples and standards were run in duplicate.

[4] = system: MLO-Y4 osteocytes; experiment: Primary cilia length and incidence by immunocytochemistry (acetylated α-tubulin); format: cell-based; settings: for cilia incidence in untransfected (healthy, ciliated) cells: fenoldopam; for cilia incidence in AC6 siRNA treated cells / recovering cilia length in AC6 siRNA treated cells: fenoldopam on AC6 siRNA treated cells
Method: MLO-Y4 osteocytes were cultured on collagen-coated dishes in MEMα (Life Tech) supplemented with 5% fetal bovine serum, 5% calf serum, and 1% penicillin/streptomycin at 37° C. and 5% CO2. […] These agents, or their vehicle control, were applied to cells for 16 h prior to experimentation. MTT, (methylthiazolyldiphenyl-tetrazolium bromide) assay (Sigma) was performed according to manufacturer's protocol to assess cell viability during drug treatments. Phase contrast microscopy with an Olympus CKX41 inverted microscope and 40× objective was used to assess cell morphology.
For primary cilia imaging and analysis, cells cultured on collagen I-coated glass were fixed in 10% formalin and treated with anti-acetylated α-tubulin primary antibody, 1:1, from a C3B9 hybridoma cell line (Sigma). Cilia were visualised with Alexa-Fluor 488 secondary antibody, 1:1000 (Life Technologies) and imaged with a 100× oil objective on an Olympus Fluoview FV1000 confocal microscope. Nuclei were stained with DAPI (Life Technologies). Cilia length was analyzed using Image J software.
Gene silencing was performed by siRNA mediated knockdown and compared to scramble siRNA control (Life Technologies). […]

[5] = Adverse effects of drug treatment: body, kidney and liver weight, H&E histology, bone ultrastructure, injection site; format: in vivo, mice; settings: fenoldopam 20 mg/kg; for visible bone ultrastructure: loaded ulnae
Source text: Mice were housed in the Columbia University Barrier Facility and fed ad libidum. All procedures performed were in accordance with Columbia University Institutional Animal Care and Use Committee guidelines.
Kidneys and liver were dissected from animals, weighed, fixed in 10% formalin, and stored in 70% ethanol before being paraffin embedded. 5 μm thick longitudinal sections were made, and samples were stained with hematoxylin and eosin to visualize tissue structure. Images were captured at 4× magnification. Kidney function was broadly examined by urine creatinine concentration. […] Hydrophobic sand (Lab Sand) was used for urine sample collection, and analysis was performed using a total urine creatinine kit (Cayman Chemical).

[6] = system: C57Bl/6 mice; experiment: Load-induced bone formation: compressive ulnar loading and dynamic histomorphometry; format: in vivo; settings: ulnar load final 3 days
Source text: All data are shown in reference to the non-loaded contralateral limb as control. […] On day 4-6 the mice were subjected to daily axial compressive ulnar loading. Mice were placed under isoflurane anesthesia and forelimbs were placed between two loading cups controlled by an electromagnetic loading system with feedback control (Bose, ELF 3220). An initial 0.1 N preload was applied, followed by 3 N of cyclic compression applied with a 2 Hz sine wave for 120 cycles, generating a strain gage verified average peak deformation of 1895 μstrain. On day 8, mice were subcutaneously injected with calcein (10 mg/kg) and alizarin red (70 mg/kg) on day 12. Mice were euthanized on day 18 and prepared for dynamic histomorphometric analysis.
Compressive ulnar loading was applied on days 5-7 to mechanically stimulate bone (3N at 2 Hz for 120 cycles) [9].
On the final three days of drug or control injection, animals were also subjected to compressive ulnar load at a peak load of 3 N using a 2 Hz sine wave for 120 cycles, as previously described (Temiyasathit, S. et al. PLoS One 7, (2012); Lee, K. L. et al. FASEB J. 28, 1157-1165 (2014)). Contralateral limbs served as a non-loaded control. 2 days following load, mice were treated with 10 mg/kg calcein (Sigma), and 4 days later 70 mg/kg alizarin (Sigma), with mice being sacrificed 6 days later.
Dynamic histomorphometry was performed as previously described, measuring the amount and separation of calcein and alizarin labels to quantify mineralizing surface (rMS/BS), mineral apposition rate (rMAR), and bone formation rate (rBFR/BS) relative to non-loaded controls (Temiyasathit, S. et al. PLoS One 7, (2012); Lee, K. L. et al. FASEB J. 28, 1157-1165 (2014)). Left and right ulnae were dissected and preserved in ethanol. Samples were then infiltrated with methyl methacrylate, and embedded in methyl methacrylate and benzoyl peroxide. Transverse sections of the ulnar midshaft were imaged on a laser scanning confocal microscope (Olympus Fluoview FV1000). Measurements of outer bone perimeter (OP), single label perimeter (SL), double label perimeter (DL), and double label area (DA) were made in ImageJ. The mineralizing surface relative to outer bone surface (MS/BS), mineral apposition rate (MAR), and bone formation rate (BFS/BS) were calculated as:
Relative measurements—rMS/BS, rMAR, rBFR/BS—were determined by subtracting non-loaded from loaded ulnae to display differences due to mechanical load.

[7] = 10 μM fenoldopam 16 h, flow 1 hr, fold change flow over no flow
[8] = fenoldopam on AC6 siRNA treated cells
[9] = fenoldopam on IFT88 siRNA treated cells
[10] = fenoldopam 20 mg/kg s.c. 7 consecutive days, relative to non-loaded limb, vs vehicle
[11] = fenoldopam 20 mg/kg s.c. 7 consecutive days, relative to non-loaded limb, vs vehicle, listed as Fenoldopam
[12] = fenoldopam 50 mg/kg (Fen-High) s.c. 7 consecutive days

Oc1ccc(C2CNCCc3c2cc(O)c(O)c3Cl)cc1 (stereo not shown) [fenoldopam, Fenoldopam mesylate]
elevated flow-induced COX-2 mRNA expression compared to unlengthened controls [1, 7]: 124%±27%
elevated flow-induced OPN mRNA expression compared to unlengthened controls [1, 7]: 48%±8%
COX-2 mRNA response to flow (in words) [1]: significant increases
OPN mRNA response to flow (in words) [1]: significant increases
COX-2 mRNA response to flow (in words) ([1]; listed as Fenoldopam): increased
OPN mRNA response to flow (in words) ([1]; listed as Fenoldopam): increased
AC6 mRNA expression in AC6 siRNA treated cells under flow [1, 8]: not recovered
flow-induced OPN mRNA expression in AC6 siRNA treated cells [1, 8]: not recovered
flow stimulated OPN expression in IFT88 siRNA treated cells (in words) [1, 9]: able to recover
recovery of flow-induced OPN response compared to IFT88 siRNA and vehicle treated cells ([1]; fenoldopam on IFT88 siRNA treated cells, flow 1 h): 52%±1%
MSC osteogenic differentiation, as measured by osterix (OSX) expression [2]: significantly enhanced
enhancement of forskolin stimulated cAMP response compared to vehicle control ([3]; 10 μM fenoldopam 16 hours, then 10 μM forskolin 20 minutes): 130%±25%
cAMP response to forskolin stimulation (in words) ([3]; fenoldopam 16 h, then forskolin 20 min): significantly increases
primary cilia length compared to vehicle control (in words) ([4]; 10 μM fenoldopam, 16 h): significantly increases
primary cilia length compared to vehicle control (in words) ([4]; 10 μM fenoldopam, 16 h, listed as Fenoldopam): increased
increases in cilia length compared to vehicle control ([4]; 10 μM fenoldopam, 16 h, mean±SEM): 26%±7%
cilia incidence in untransfected (healthy, ciliated) cells [4]: no significant effect
cilia incidence in AC6 siRNA treated cells [4]: Neither AC6 siRNA nor fenoldopam alter cilia incidence
recovering cilia length in AC6 siRNA treated cells [4]: not recovered
cilia incidence in AC6 siRNA treated cells ([4]; listed as Fenoldopam): no effect
recovering cilia length in AC6 siRNA treated cells ([4]; listed as Fenoldopam): no effect
cilia incidence in IFT88 siRNA treated cells [4, 9]: significantly recovering; also recorded: recovered
cilia length / formation in IFT88 siRNA treated cells [4, 9]: noticeably recovered; also recorded: appears to recover cilia length
cilia length / formation in IFT88 siRNA treated cells ([4]; fenoldopam on IFT88 siRNA treated cells, listed as Fenoldopam): recovers primary cilia formation
cilia incidence in untransfected (healthy, ciliated) cells ([4]; listed as Fenoldopam): no effect
visible bone ultrastructure ([5]; 7 days, vs vehicle control): no difference
visible bone ultrastructure ([5]; 7 days, vs vehicle control, listed as Fenoldopam): no qualitative change
kidney morphology assessed by H&E stain ([5]; 7 days, vs vehicle control): remained unchanged
kidney weight ([5]; 7 days, vs vehicle control): remained unchanged
mouse weight ([5]; 7 days, vs vehicle control): remained unchanged
kidney histology ([5]; preliminary study): no abnormalities or cysts
kidney weight to body mass measurements ([5]; preliminary study): no different than vehicle controls
bone formation rate (rBFR/BS) [6, 10]: significantly increased; also recorded: significant increases; also recorded: significantly enhanced
mineral apposition rate (rMAR) [6, 10]: significantly increased; also recorded: significant increases
mineralizing surface (rMS/BS) [6, 10]: remained unchanged; also recorded: neither fenoldopam concentration elicited a significant increase
bone formation rate (rBFR/BS) [6, 11]: enhances
mineralizing surface (rMS/BS) [6, 11]: no effect
bone formation rate (rBFR/BS) [6, 12]: no statistically significant difference; also recorded: no effect; also recorded: elicited no bone formation response
mineral apposition rate (rMAR) [6, 12]: no statistically significant difference; also recorded: no effect
mineralizing surface (rMS/BS) [6, 12]: no statistically significant difference; also recorded: no effect
